Test results reported in patent US7501384B2, “Crystalline modification of the anhydrate of boscalid” (BASF Aktiengesellschaft, priority 2003, dated 2009).

Experiment: Tank mixing compatibility: 5% suspension of water-dispersible granules in CIPAC D water mixed with 1% Solvesso 200, stored, solid residue on 75 μm sieve determined
Type: physicochemical
Procedure: Comparison of the Tank Mixing Compatibility: For this purpose, both water-dispersible granules of the above composition, comprising anhydrate of the compound of the formula I of modification I (formulation A), and water-dispersible granules of anhydrate of the compound of the formula I of modification II (formation B) were prepared. A 5% strength suspension of the respective water-dispersible granules in CIPAC D water (Ca^++/Mg^++ (4:1) hardness of 342 ppm and pH of from 6.0 to 7.0 was then prepared. This suspension was then mixed with 1% of Solvesso 200 (mixture of aromatic hydrocarbons) as a typical solvent for solvent-containing liquid formulations (e.g. EC). The corresponding spray liquor was then stored over a certain period at a certain temperature. For assessing the quality, the solid residue on a 75 μm sieve was determined after the storage.

SMILES: O=C(Nc1ccccc1-c1ccc(Cl)cc1)c1cccnc1Cl [modification II, 2-chloro-N-(4′-chlorobiphenyl-2-yl)-nicotinamide]
- crystal growth in the presence of solvents: scarcely any crystal growth
